Here are results for one compound from publication PMC4890785, “Recombinant L-Asparaginase from Zymomonas mobilis: A Potential New Antileukemic Agent Produced in Escherichia coli” (PLoS ONE, 2016).

The structures appear in SMILES notation.

This assay concerns the target T1, L-asparaginase from Z. mobilis (L-AspZ) (Zymomonas mobilis, UniProt Q5NLV3).
T1 construct: gene ZMO1683; first 29 residues (signal peptide) removed; codon-optimised gene in E. coli BL21(DE3): pET26b (pelB, extracellular) or pET28a (cytoplasmic); not purified
The experiment in a line: ammonia release, salicylate-hypochlorite (indophenol) colorimetry. The assay is classed as biochemical. As to conditions: sonicated E. coli lysate or concentrated culture medium; 37 °C, pH 7.3, 20 mM sodium phosphate; asparagine stock 5 g/L mixed 1:1; uninduced control tested.

T1 sequence (Q5NLV3 entry or part of it): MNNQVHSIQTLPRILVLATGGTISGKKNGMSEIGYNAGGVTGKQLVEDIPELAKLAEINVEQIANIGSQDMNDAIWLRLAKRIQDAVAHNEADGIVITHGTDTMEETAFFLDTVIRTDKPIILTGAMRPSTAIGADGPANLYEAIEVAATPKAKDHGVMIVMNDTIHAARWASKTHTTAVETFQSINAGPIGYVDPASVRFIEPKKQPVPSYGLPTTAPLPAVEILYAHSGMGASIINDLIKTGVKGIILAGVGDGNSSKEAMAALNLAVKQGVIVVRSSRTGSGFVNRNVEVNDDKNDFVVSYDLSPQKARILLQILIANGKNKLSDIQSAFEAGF

Regarding `NC(=O)C[C@H](N)C(=O)O` [asparagine], the “ammonia release, salicylate-hypochlorite (indophenol) colorimetry” value was “Enzyme activity was measured by hydrolyzing asparagine to aspartate and ammonia”.
